In the NIST ThermoML archive (doi:10.1016/j.jct.2016.08.034):
Numbers after ± are expanded uncertainties.

Conditions: Crystal; DTA

- Normal melting temperature: 153.13 ± 1.1 °C
SMILES: C=CC(=O)N1CCC[C@@H](n2nc(-c3ccc(Oc4ccccc4)cc3)c3c(N)ncnc32)C1 [Ibrutinib]
